Assays:
Assay in all cases: relative viability (nuclei count vs DMSO), 5 days (fraction); higher = more cells survive
[1] = system: NCI-H358
Procedure, shortened: (§1)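 Relative viability was taken as the ratio of nuclei in treated wells to nuclei in vehicle wells. Lung cancer cell lines in 1536-well plates received compounds by pin tool one day after seeding, either one drug alone or a fixed anchor-drug dose plus five library-drug doses (not always all listed) in √10 steps. Nuclei were counted on 4× images after 5 days of treatment, and values are medians of duplicate plates.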

[2] = system: PC-14
Procedure, shortened: as §1

[3] = system: EPLC-272H
Procedure, shortened: as §1

[4] = system: ABC-1
Procedure, shortened: as §1

[5] = system: NCI-H522
Procedure, shortened: as §1

[6] = system: NCI-H1915
Procedure, shortened: as §1

[7] = system: NCI-H460
Procedure, shortened: as §1

[8] = system: NCI-H2085
Procedure, shortened: as §1

[9] = system: NCI-H2342
Procedure, shortened: as §1

[10] = system: NCI-H2009
Procedure, shortened: as §1

[11] = system: HCC-78
Procedure, shortened: as §1

[12] = system: NCI-H650
Procedure, shortened: as §1

[13] = system: NCI-H1993
Procedure, shortened: as §1

[14] = system: LC-2-ad
Procedure, shortened: as §1

[15] = system: SW 1573
Procedure, shortened: as §1

[16] = system: NCI-H2126
Procedure, shortened: as §1

[17] = system: HCC-15
Procedure, shortened: as §1

[18] = system: HARA
Procedure, shortened: as §1

[19] = system: NCI-H838
Procedure, shortened: as §1

[20] = system: NCI-H2347
Procedure, shortened: as §1

[21] = system: COR-L23
Procedure, shortened: as §1

[22] = system: LU99A
Procedure, shortened: as §1

[23] = system: NCI-H1651
Procedure, shortened: as §1

[24] = system: UMC-11
Procedure, shortened: as §1

CC(C)Oc1cc(Nc2nc(N[C@@H](C)c3ccc(F)cn3)ncc2Cl)n[nH]1 [AZ23] + N=C(N)NC(=N)NCCc1ccccc1 [Phenformin] (partner 250 µM)
relative viability ([1]; first compound 0.01 µM): 0.369
relative viability ([1]; first compound 0.03162 µM): 0.347
relative viability ([1]; first compound 0.3162 µM): 0.348
relative viability ([2]; first compound 0.03162 µM): 0.781
relative viability ([2]; first compound 0.3162 µM): 0.703
relative viability ([3]; first compound 0.01 µM): 0.33
relative viability ([3]; first compound 0.03162 µM): 0.302
relative viability ([3]; first compound 0.3162 µM): 0.378
relative viability ([4]; first compound 0.01 µM): 0.211
relative viability ([4]; first compound 0.03162 µM): 0.221
relative viability ([4]; first compound 0.3162 µM): 0.236
relative viability ([5]; first compound 0.01 µM): 0.711
relative viability ([5]; first compound 0.03162 µM): 0.662
relative viability ([5]; first compound 0.3162 µM): 0.656
relative viability ([6]; first compound 0.01 µM): 0.4
relative viability ([6]; first compound 0.03162 µM): 0.373
relative viability ([6]; first compound 0.3162 µM): 0.372
relative viability ([7]; first compound 0.01 µM): 0.335
relative viability ([7]; first compound 0.03162 µM): 0.601
relative viability ([7]; first compound 0.3162 µM): 0.549
relative viability ([8]; first compound 0.01 µM): 0.727
relative viability ([8]; first compound 0.03162 µM): 0.705
relative viability ([8]; first compound 0.3162 µM): 0.779
relative viability ([9]; first compound 0.01 µM): 0.683
relative viability ([9]; first compound 0.03162 µM): 0.634
relative viability ([9]; first compound 0.3162 µM): 0.564
relative viability ([10]; first compound 0.01 µM): 0.508
relative viability ([10]; first compound 0.03162 µM): 0.539
relative viability ([10]; first compound 0.3162 µM): 0.63
relative viability ([11]; first compound 0.01 µM): 0.692
relative viability ([11]; first compound 0.03162 µM): 0.656
relative viability ([11]; first compound 0.3162 µM): 0.583
relative viability ([12]; first compound 0.01 µM): 0.432
relative viability ([12]; first compound 0.03162 µM): 0.461
relative viability ([12]; first compound 0.3162 µM): 0.466
relative viability ([13]; first compound 0.01 µM): 0.501
relative viability ([13]; first compound 0.03162 µM): 0.475
relative viability ([13]; first compound 0.3162 µM): 0.441
relative viability ([14]; first compound 0.01 µM): 0.544
relative viability ([14]; first compound 0.03162 µM): 0.611
relative viability ([14]; first compound 0.3162 µM): 0.528
relative viability ([15]; first compound 0.01 µM): 0.347
relative viability ([15]; first compound 0.03162 µM): 0.512
relative viability ([15]; first compound 0.3162 µM): 0.465
relative viability ([16]; first compound 0.01 µM): 0.51
relative viability ([16]; first compound 0.03162 µM): 0.539
relative viability ([16]; first compound 0.3162 µM): 0.532
relative viability ([17]; first compound 0.01 µM): 0.555
relative viability ([17]; first compound 0.03162 µM): 0.537
relative viability ([17]; first compound 0.3162 µM): 0.494
relative viability ([18]; first compound 0.03162 µM): 0.589
relative viability ([18]; first compound 0.3162 µM): 0.471
relative viability ([19]; first compound 0.01 µM): 0.546
relative viability ([19]; first compound 0.03162 µM): 0.586
relative viability ([19]; first compound 0.3162 µM): 0.597
relative viability ([20]; first compound 0.01 µM): 0.341
relative viability ([20]; first compound 0.03162 µM): 0.333
relative viability ([20]; first compound 0.3162 µM): 0.455
relative viability ([21]; first compound 0.01 µM): 0.367
relative viability ([21]; first compound 0.03162 µM): 0.512
relative viability ([21]; first compound 0.3162 µM): 0.462
relative viability ([22]; first compound 0.01 µM): 0.912
relative viability ([22]; first compound 0.03162 µM): 0.976
relative viability ([22]; first compound 0.3162 µM): 0.882
relative viability ([23]; first compound 0.03162 µM): 0.332
relative viability ([23]; first compound 0.3162 µM): 0.356
relative viability ([24]; first compound 0.01 µM): 0.341
relative viability ([24]; first compound 0.03162 µM): 0.305
relative viability ([24]; first compound 0.3162 µM): 0.324
